Data: patent US20260007681A1, “INDOLE DERIVATIVES AS ESTROGEN RECEPTOR DEGRADERS” (REGENTS OF THE UNIVERSITY OF MICHIGAN, priority 2022, published 2026)

Each compound was assayed against ER (Homo sapiens (Human), UniProt P03372) (assay: Western blot analysis (Compounds B1-B278)). Details: ER degradation by traditional Western blot; DC50 classes.
Format: cell-based
Method in brief: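 Relative target-protein levels come from densitometry of immunoblots, normalized to GAPDH. Lysates from treated cells were prepared in RIPA buffer (pH 7.6) containing protease inhibitors, and equal protein amounts, checked by BCA, were separated on 10% gels and blotted onto PVDF.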

ER, sequence (P03372 whole entry): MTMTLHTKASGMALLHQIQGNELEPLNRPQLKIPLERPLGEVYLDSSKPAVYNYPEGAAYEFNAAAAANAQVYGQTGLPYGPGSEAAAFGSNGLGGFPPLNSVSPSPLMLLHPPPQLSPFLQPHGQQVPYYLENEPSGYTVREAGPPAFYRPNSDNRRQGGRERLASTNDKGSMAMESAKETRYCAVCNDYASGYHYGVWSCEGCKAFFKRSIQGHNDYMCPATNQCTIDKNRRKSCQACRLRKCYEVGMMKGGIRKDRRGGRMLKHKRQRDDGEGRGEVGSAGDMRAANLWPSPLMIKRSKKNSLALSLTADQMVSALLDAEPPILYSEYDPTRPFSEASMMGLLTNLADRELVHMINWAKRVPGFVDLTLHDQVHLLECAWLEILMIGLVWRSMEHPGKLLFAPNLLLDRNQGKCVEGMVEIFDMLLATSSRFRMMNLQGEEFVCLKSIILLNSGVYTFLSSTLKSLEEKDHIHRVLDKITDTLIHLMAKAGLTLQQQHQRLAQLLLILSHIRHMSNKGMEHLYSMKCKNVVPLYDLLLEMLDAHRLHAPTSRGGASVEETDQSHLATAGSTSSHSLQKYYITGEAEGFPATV

Q: Which “Traditional Western Degradation Potency” value does the source give for `C[C@@H]1Cc2c([nH]c3ccccc23)[C@@H](c2cnc(N3CC4(CCC(CN5Cc6cc7c(cc6C5)C(=O)N(C5CCC(=O)NC5=O)C7=O)CC4)C3)nc2)N1CC(F)F` (stereo partly drawn) [Compound B185, 6-((2-(5-((1R,3R)-2-(2,2-difluoroethyl)-3-methyl-2,3,4,9-tetrahydro-1H-pyrido[3,4-b]indol-1-yl)pyrimidin-2-yl)-2-azaspiro[3.5]nonan-7-yl)methyl)-2-(2,6-dioxopiperidin-3-yl)-6,7-dihydropyrrolo[3,4-f]isoindole-1,3(2H,5H)-dione] here?
A: C (“C”: >100 nM)

Q: How did the “Traditional Western Degradation Potency” value turn out when `C[C@@H]1Cc2c([nH]c3ccccc23)[C@@H](c2cnc(N3CCC4(CC3)CC(CN3Cc5cc6c(cc5C3)C(=O)N(C3CCC(=O)NC3=O)C6=O)C4)nc2)N1CC(C)(C)F` (stereo partly drawn) [Compound B186, 2-(2,6-dioxopiperidin-3-yl)-6-((7-(5-((1R,3R)-2-(2-fluoro-2-methylpropyl)-3-methyl-2,3,4,9-tetrahydro-1H-pyrido[3,4-b]indol-1-yl)pyrimidin-2-yl)-7-azaspiro[3.5]nonan-2-yl)methyl)-6,7-dihydropyrrolo[3,4-f]isoindole-1,3(2H,5H)-dione] was run?
A: C (“C”: >100 nM)

Q: For `C[C@@H]1Cc2c([nH]c3ccccc23)[C@@H](c2cnc(N3CCC4(CC3)CC(CN3Cc5cc6c(cc5C3)C(=O)N(C3CCC(=O)NC3=O)C6=O)C4)nc2)N1CC(F)F` (stereo partly drawn) [Compound B187, 6-((7-(5-((1R,3R)-2-(2,2-difluoroethyl)-3-methyl-2,3,4,9-tetrahydro-1H-pyrido[3,4-b]indol-1-yl)pyrimidin-2-yl)-7-azaspiro[3.5]nonan-2-yl)methyl)-2-(2,6-dioxopiperidin-3-yl)-6,7-dihydropyrrolo[3,4-f]isoindole-1,3(2H,5H)-dione], which “Traditional Western Degradation Potency” value is on record?
A: B (“B”: 10-100 nM)

Q: Which “Traditional Western Degradation Potency” value does the source give for `C[C@@H]1Cc2c([nH]c3ccccc23)[C@@H](c2c(F)cc(N3CCC(CN4CCC(C(=O)N5Cc6cc7c(cc6C5)C(=O)N(C5CCC(=O)NC5=O)C7=O)CC4)C3)cc2F)N1CC(F)F` (stereo partly drawn) [Compound B188, 6-(1-((1-(4-((1R,3R)-2-(2,2-difluoroethyl)-3-methyl-2,3,4,9-tetrahydro-1H-pyrido[3,4-b]indol-1-yl)-3,5-difluorophenyl)pyrrolidin-3-yl)methyl)piperidine-4-carbonyl)-2-(2,6-dioxopiperidin-3-yl)-6,7-dihydropyrrolo[3,4-f]isoindole-1,3(2H,5H)-dione] here?
A: A (“A”: <10 nM)

Q: How did the “Traditional Western Degradation Potency” value turn out when `C[C@@H]1Cc2c([nH]c3ccccc23)[C@@H](c2c(F)cc(N3CCCC(CN4CCC(C(=O)N5Cc6cc7c(cc6C5)C(=O)N(C5CCC(=O)NC5=O)C7=O)CC4)C3)cc2F)N1CC(F)F` (stereo partly drawn) [Compound B189, 6-(1-((1-(4-((1R,3R)-2-(2,2-difluoroethyl)-3-methyl-2,3,4,9-tetrahydro-1H-pyrido[3,4-b]indol-1-yl)-3,5-difluorophenyl)piperidin-3-yl)methyl)piperidine-4-carbonyl)-2-(2,6-dioxopiperidin-3-yl)-6,7-dihydropyrrolo[3,4-f]isoindole-1,3(2H,5H)-dione] was run?
A: B (“B”: 10-100 nM)

Q: `C[C@@H]1Cc2c([nH]c3ccccc23)[C@@H](c2c(F)cc(N3CCCC(CN4CCC(N5Cc6cc7c(cc6C5)C(=O)N(C5CCC(=O)NC5=O)C7=O)CC4)C3)cc2F)N1CC(F)F` (stereo partly drawn) [Compound B190, 6-(1-((1-(4-((1R,3R)-2-(2,2-difluoroethyl)-3-methyl-2,3,4,9-tetrahydro-1H-pyrido[3,4-b]indol-1-yl)-3,5-difluorophenyl)piperidin-3-yl)methyl)piperidin-4-yl)-2-(2,6-dioxopiperidin-3-yl)-6,7-dihydropyrrolo[3,4-f]isoindole-1,3(2H,5H)-dione] was tested. Which “Traditional Western Degradation Potency” value did it give?
A: B (“B”: 10-100 nM)
